# Assays:
# Assay type in all cases: functional
# Conditions in all cases: read-out: Activity
# UO-31 = experiment: Cytotoxicity against human UO-31 cells assessed as cell viability at 10 uM incubated for 48 hrs by sulforhodamine B assay relative to control
# NCI-H23 = experiment: Cytotoxicity against human NCI-H23 cells assessed as cell viability at 10 uM incubated for 48 hrs by sulforhodamine B assay relative to control
# HOP-92 = experiment: Cytotoxicity against human HOP-92 cells assessed as cell viability at 10 uM incubated for 48 hrs by sulforhodamine B assay relative to control
# NCI/ADR-RES = experiment: Cytotoxicity against human NCI/ADR-RES cells assessed as cell viability at 10 uM incubated for 48 hrs by sulforhodamine B assay relative to control
# SW-620 = experiment: Cytotoxicity against human SW-620 cells assessed as cell viability at 10 uM incubated for 48 hrs by sulforhodamine B assay relative to control
# NCI-H522 = experiment: Cytotoxicity against human NCI-H522 cells assessed as cell viability at 10 uM incubated for 48 hrs by sulforhodamine B assay relative to control
# TK-10 = experiment: Cytotoxicity against human TK-10 cells assessed as cell viability at 10 uM incubated for 48 hrs by sulforhodamine B assay relative to control
# HCT-15 = experiment: Cytotoxicity against human HCT-15 cells assessed as cell viability at 10 uM incubated for 48 hrs by sulforhodamine B assay relative to control
# HCC 2998 = experiment: Cytotoxicity against human HCC 2998 cells assessed as cell viability at 10 uM incubated for 48 hrs by sulforhodamine B assay relative to control
# OVCAR-5 = experiment: Cytotoxicity against human OVCAR-5 cells assessed as cell viability at 10 uM incubated for 48 hrs by sulforhodamine B assay relative to control
# MDA-MB-231 = experiment: Cytotoxicity against human MDA-MB-231 cells assessed as cell viability at 10 uM incubated for 48 hrs by sulforhodamine B assay relative to control
# SF-295 = experiment: Cytotoxicity against human SF-295 cells assessed as cell viability at 10 uM incubated for 48 hrs by sulforhodamine B assay relative to control
# NCI-H322M = experiment: Cytotoxicity against human NCI-H322M cells assessed as cell viability at 10 uM incubated for 48 hrs by sulforhodamine B assay relative to control
# Hs-578T = experiment: Cytotoxicity against human HS-578T cells assessed as cell viability at 10 uM incubated for 48 hrs by sulforhodamine B assay relative to control
# EKVX = experiment: Cytotoxicity against human EKVX cells assessed as cell viability at 10 uM incubated for 48 hrs by sulforhodamine B assay relative to control
# U-251 = experiment: Cytotoxicity against human U-251 cells assessed as cell viability at 10 uM incubated for 48 hrs by sulforhodamine B assay relative to control
# RXF 393 = experiment: Cytotoxicity against human RXF 393 cells assessed as cell viability at 10 uM incubated for 48 hrs by sulforhodamine B assay relative to control
# PC-3 = experiment: Cytotoxicity against human PC-3 cells assessed as cell viability at 10 uM incubated for 48 hrs by sulforhodamine B assay relative to control
# Malme-3M = experiment: Cytotoxicity against human Malme-3M cells assessed as cell viability at 10 uM incubated for 48 hrs by sulforhodamine B assay relative to control
# CAKI-1 = experiment: Cytotoxicity against human CAKI-1 cells assessed as cell viability at 10 uM incubated for 48 hrs by sulforhodamine B assay relative to control
# HOP-62 = experiment: Cytotoxicity against human HOP-62 cells assessed as cell viability at 10 uM incubated for 48 hrs by sulforhodamine B assay relative to control
# SNB-19 = experiment: Cytotoxicity against human SNB-19 cells assessed as cell viability at 10 uM incubated for 48 hrs by sulforhodamine B assay relative to control
# LOX IMVI = experiment: Cytotoxicity against human LOX IMVI cells assessed as cell viability at 10 uM incubated for 48 hrs by sulforhodamine B assay relative to control
# DU-145 = experiment: Cytotoxicity against human DU-145 cells assessed as cell viability at 10 uM incubated for 48 hrs by sulforhodamine B assay relative to control
# SR = experiment: Cytotoxicity against human SR cells assessed as cell viability at 10 uM incubated for 48 hrs by sulforhodamine B assay relative to control
# HCT-116 = experiment: Cytotoxicity against human HCT-116 cells assessed as cell viability at 10 uM incubated for 48 hrs by sulforhodamine B assay relative to control
# OVCAR-8 = experiment: Cytotoxicity against human OVCAR-8 cells assessed as cell viability at 10 uM incubated for 48 hrs by sulforhodamine B assay relative to control
# SK-MEL-5 = experiment: Cytotoxicity against human SK-MEL-5 cells assessed as cell viability at 10 uM incubated for 48 hrs by sulforhodamine B assay relative to control
# SK-MEL-2 = experiment: Cytotoxicity against human SK-MEL-2 cells assessed as cell viability at 10 uM incubated for 48 hrs by sulforhodamine B assay relative to control
# M14 = experiment: Cytotoxicity against human M14 cells assessed as cell viability at 10 uM incubated for 48 hrs by sulforhodamine B assay relative to control
# RPMI-8226 = experiment: Cytotoxicity against human RPMI-8226 cells assessed as cell viability at 10 uM incubated for 48 hrs by sulforhodamine B assay relative to control
# SF-268 = experiment: Cytotoxicity against human SF-268 cells assessed as cell viability at 10 uM incubated for 48 hrs by sulforhodamine B assay relative to control
# BT-549 = experiment: Cytotoxicity against human BT-549 cells assessed as cell viability at 10 uM incubated for 48 hrs by sulforhodamine B assay relative to control
# MCF7 = experiment: Cytotoxicity against human MCF7 cells assessed as cell viability at 10 uM incubated for 48 hrs by sulforhodamine B assay relative to control
# A549 = experiment: Cytotoxicity against human A549 cells assessed as cell viability at 10 uM incubated for 48 hrs by sulforhodamine B assay relative to control
# NCI-H226 = experiment: Cytotoxicity against human NCI-H226 cells assessed as cell viability at 10 uM incubated for 48 hrs by sulforhodamine B assay relative to control
# MDA-MB-435 = experiment: Cytotoxicity against human MDA-MB-435 cells assessed as cell viability at 10 uM incubated for 48 hrs by sulforhodamine B assay relative to control
# SNB-75 = experiment: Cytotoxicity against human SNB-75 cells assessed as cell viability at 10 uM incubated for 48 hrs by sulforhodamine B assay relative to control
# UACC-257 = experiment: Cytotoxicity against human UACC-257 cells assessed as cell viability at 10 uM incubated for 48 hrs by sulforhodamine B assay relative to control
# SF-539 = experiment: Cytotoxicity against human SF-539 cells assessed as cell viability at 10 uM incubated for 48 hrs by sulforhodamine B assay relative to control
# IGROV-1 = experiment: Cytotoxicity against human IGROV-1 cells assessed as cell viability at 10 uM incubated for 48 hrs by sulforhodamine B assay relative to control
structure (smiles),measurement,setting,value
O=S(=O)(NCCNc1nccc(-c2c(-c3cccc(F)c3)nc3sccn23)n1)c1ccc(Cl)cc1,viability at 10 µM,UO-31,23.9%
same,viability at 10 µM,NCI-H23,74.9%
same,viability at 10 µM,HOP-92,76.6%
same,viability at 10 µM,NCI/ADR-RES,67.7%
same,viability at 10 µM,SW-620,59.6%
same,viability at 10 µM,NCI-H522,68.2%
same,viability at 10 µM,TK-10,88.5%
same,viability at 10 µM,HCT-15,31.9%
same,viability at 10 µM,HCC 2998,83.4%
same,viability at 10 µM,OVCAR-5,93.3%
same,viability at 10 µM,MDA-MB-231,91.1%
same,viability at 10 µM,SF-295,63.7%
same,viability at 10 µM,NCI-H322M,65.5%
same,viability at 10 µM,Hs-578T,72.5%
same,viability at 10 µM,EKVX,66.3%
same,viability at 10 µM,U-251,55.2%
same,viability at 10 µM,RXF 393,69%
same,viability at 10 µM,PC-3,56.9%
same,viability at 10 µM,Malme-3M,82.7%
same,viability at 10 µM,CAKI-1,41.1%
same,viability at 10 µM,HOP-62,82.6%
same,viability at 10 µM,SNB-19,66.5%
same,viability at 10 µM,LOX IMVI,43.6%
same,viability at 10 µM,DU-145,54.2%
same,viability at 10 µM,SR,40.6%
same,viability at 10 µM,HCT-116,34%
same,viability at 10 µM,OVCAR-8,53.6%
same,viability at 10 µM,SK-MEL-5,36.5%
same,viability at 10 µM,SK-MEL-2,79.8%
same,viability at 10 µM,M14,56.6%
same,viability at 10 µM,RPMI-8226,59.5%
same,viability at 10 µM,SF-268,52.9%
same,viability at 10 µM,BT-549,71.3%
same,viability at 10 µM,MCF7,24.7%
same,viability at 10 µM,A549,32.1%
same,viability at 10 µM,NCI-H226,49.3%
same,viability at 10 µM,MDA-MB-435,26.3%
same,viability at 10 µM,SNB-75,78.9%
same,viability at 10 µM,UACC-257,88.7%
same,viability at 10 µM,SF-539,82.5%
same,viability at 10 µM,IGROV-1,15.8%
O=S(=O)(NCCNc1nccc(-c2c(-c3cccc(F)c3)nc3sccn23)n1)c1cccc(F)c1,viability at 10 µM,UO-31,30.2%
same,viability at 10 µM,NCI-H23,83.4%
same,viability at 10 µM,HOP-92,88.2%
same,viability at 10 µM,NCI/ADR-RES,80.3%
same,viability at 10 µM,SW-620,75.8%
same,viability at 10 µM,NCI-H522,75.8%
same,viability at 10 µM,TK-10,88%
same,viability at 10 µM,HCT-15,38.9%
same,viability at 10 µM,HCC 2998,95.5%
same,viability at 10 µM,OVCAR-5,100%
same,viability at 10 µM,MDA-MB-231,79%
same,viability at 10 µM,SF-295,80.6%
same,viability at 10 µM,NCI-H322M,77.1%
same,viability at 10 µM,Hs-578T,78.3%
same,viability at 10 µM,EKVX,72.1%
same,viability at 10 µM,U-251,60.7%
same,viability at 10 µM,RXF 393,80.2%
same,viability at 10 µM,PC-3,67.2%
same,viability at 10 µM,Malme-3M,108%
same,viability at 10 µM,CAKI-1,44.6%
same,viability at 10 µM,HOP-62,83.5%
same,viability at 10 µM,SNB-19,73%
same,viability at 10 µM,LOX IMVI,51.2%
same,viability at 10 µM,DU-145,65.1%
same,viability at 10 µM,SR,45.5%
same,viability at 10 µM,HCT-116,42.8%
same,viability at 10 µM,OVCAR-8,60.1%
same,viability at 10 µM,SK-MEL-5,53.5%
same,viability at 10 µM,SK-MEL-2,81.8%
same,viability at 10 µM,M14,69.4%
same,viability at 10 µM,RPMI-8226,66.8%
same,viability at 10 µM,SF-268,68.6%
same,viability at 10 µM,BT-549,81.5%
same,viability at 10 µM,MCF7,30.8%
same,viability at 10 µM,A549,42.1%
same,viability at 10 µM,NCI-H226,62.5%
same,viability at 10 µM,MDA-MB-435,41.9%
same,viability at 10 µM,SNB-75,80%
same,viability at 10 µM,UACC-257,104%
same,viability at 10 µM,SF-539,95.6%
same,viability at 10 µM,IGROV-1,24.6%

# — ChEMBL document CHEMBL4665642, “Anticancer profile of newly synthesized BRAF inhibitors possess 5-(pyrimidin-4-yl)imidazo[2,1-b]thiazole scaffold” (Bioorg Med Chem, 2019)
